From patent US12593841B2, “Antimicrobial mixture containing 4-(3-ethoxy-4-hydroxyphenyl)butan-2-one and an arginate compound, and cosmetic composition containing same” (L'OREAL, priority 2017, dated 2026)

Legend:
Format in all cases: cell-based
[1] = tested on: Candida albicans ATCC 10231; assay: MIC / synergy (FIC index) microplate growth test on Candida albicans
From the text: (§1) As regards the combinations tested, MICa with b and MICb with a are the respective concentrations of A and of B in the combinations which make it possible to obtain a microbial growth percentage of less than or equal to 25%.
(§2) When the FIC index value is less than or equal to 1, it is considered that the combination of test compounds has a synergistic effect.
The microbial strain Candida albicans ATCC 10231 and a double-concentration Sabouraud broth liquid culture medium were used.
(§3) A 96-well microplate at an incubation temperature of 32.5° C. is used.
(§4) The incubation time of the microplate for the three abovementioned strains is from 18 to 24 hours aerobically.
(§5) A 10% (weight/volume) stock solution was prepared by mixing 1 g of compound in 9 ml of aqueous 1‰ agar solution. Successive dilutions were made with the 1‰ agar solution. • Tests of compounds A and B alone
(§6) 50 μL of each of the daughter solutions obtained containing compound A or B are added to the microplate wells. 100 μl of Sabouraud liquid nutrient broth inoculated at double concentration with the strain Candida albicans and 50 μl of aqueous 1‰0 agar solution are also added thereto. • Tests of compounds A and B as a mixture
(§7) 50 μL of each of the daughter solutions obtained containing compound A and 50 μL of each of the daughter solutions obtained containing compound B are added to the microplate wells. 100 μl of Sabouraud liquid nutrient broth inoculated at double concentration with the strain Candida albicans are also added thereto.
(§8) A positive microbial growth control was also prepared. The positive microbial growth control corresponds to a mixture of 100 μl of aqueous 1‰ agar solution with 100 μl of Sabouraud liquid nutrient broth inoculated at double concentration with the strain Candida albicans in the absence of compounds A and B.
(§9) An absorbance control was performed in parallel on compounds A and B alone. This control corresponds to 100 μL of double concentration sterile Sabouraud liquid nutrient broth +100 μl of double concentration compound A or B.
(§10) In the three cases (absorbance control, growth control and test), the final volume present in each of the microplate wells is 200 μL.
In the two cases (test and control), the inoculum represents the concentration of the strain Candida albicans present in the final volume of the wells (200 μL) and is between 2 and 6×10^5 cfu/ml of Candida albicans.

[2] = tested on: Staphylococcus aureus ATCC 6538; assay: MIC / synergy (FIC index) microplate growth test on Staphylococcus aureus
From the text: as §1, §2
The microbial strain Staphylococcus aureus ATCC 6538 and a double-concentration nutrient broth liquid culture medium were used.
as §3, §4, §5, §6, §7, §8, §9, §10
(§11) The test as described above (tests, absorbance control and growth control) was performed again to test the combination A+B on the strains Staphylococcus aureus and Pseudomonas aeruginosa.

[3] = tested on: Pseudomonas aeruginosa ATCC 9027; assay: MIC / synergy (FIC index) microplate growth test on Pseudomonas aeruginosa
From the text: as §1, §2
The microbial strain Pseudomonas aeruginosa ATCC 9027 and a double-concentration nutrient broth liquid culture medium were used.
as §3, §4, §5, §6, §7, §8, §9, §10, §11

[4] = weight % of active material, growth <= 25%

CCOc1cc(CCC(C)=O)ccc1O [A, 4-(3-ethoxy-4-hydroxyphenyl)butan-2-one]
microbial growth percentage ([1]; 0.025 weight % A alone (0 B)): 80%
microbial growth percentage ([1]; 0.05 weight % A alone (0 B)): 62%
microbial growth percentage ([1]; 0.1 weight % A alone (0 B)): 24%
microbial growth percentage ([1]; 0.2 weight % A alone (0 B)): 3%
% MIC of A alone [1, 4]: 0.2%
microbial growth percentage ([2]; 0.125 weight % A alone (0 B)): 58%
microbial growth percentage ([2]; 0.25 weight % A alone (0 B)): 60%
microbial growth percentage ([2]; 0.5 weight % A alone (0 B)): 0%
% MIC of A alone [2, 4]: 0.5%
microbial growth percentage ([3]; 0.125 weight % A alone (0 B)): 99%
microbial growth percentage ([3]; 0.25 weight % A alone (0 B)): 46%
microbial growth percentage ([3]; 0.5 weight % A alone (0 B)): 37%
microbial growth percentage ([3]; 1 weight % A alone (0 B)): 41%
microbial growth percentage ([3]; 2 weight % A alone (0 B)): 19%
% MIC of A alone [3, 4]: 2%

CCCCCCCCCCCC(=O)N[C@@H](CCCNC(=N)N)C(=O)OCC.Cl [B, ethyl N-lauroyl arginate hydrochloride, reference compound]
microbial growth percentage ([1]; 0.0025 weight % B alone (0 A)): 28%
microbial growth percentage ([1]; 0.005 weight % B alone (0 A)): 9%
% MIC of B alone [1, 4]: 0.005%
microbial growth percentage ([2]; 0.00025 weight % B alone (0 A)): 71%
microbial growth percentage ([2]; 0.0005 weight % B alone (0 A)): 0%
% MIC of B alone [2, 4]: 0.0005%
microbial growth percentage ([3]; 0.0025 weight % B alone (0 A)): 37%
microbial growth percentage ([3]; 0.005 weight % B alone (0 A)): 10%
% MIC of B alone [3, 4]: 0.005%
